In patent EP1068346B1, “NUCLEOTIDE ACTIVATED DISACCHARIDES AND OLIGOSACCHARIDES AND METHOD FOR THE PRODUCTION THEREOF” (Forschungszentrum Jülich GmbH, priority 1998, dated 1999) one finds stabil data, which are given here for one substance.

This data set is classed as physicochemical. The method, then: Insgesamt wurden 4.21 mg UDP-LacNAc isoliert (Gesamtausbeute: 5.2%). Die Substanz ist mindestens 6 Monate bei -20°C stabil. UDP-LacNAc wurde durch NMR-Spektroskopie und Massenspektrometrie charakterisiert. (Fig.1-4)

On to Gal(β1-4)GlcNAc(α1-UDP [UDP-LacNAc], for which the stabil is at least 6 Monate.
